Experimental data as given in patent publication US20140107109A1, “AMINO-DIHYDROTHIAZINE AND AMINO-DIOXIDO DIHYDROTHIAZINE COMPOUNDS AS BETA-SECRETASE ANTAGONISTS AND METHODS OF USE” (Amgen Inc., priority 2012, published 2014).
Like-named read-outs stand apart in the source and are kept apart here.

Legend:
[1] = biological target: Beta Secretase enzyme (BACE1) (Homo sapiens, UniProt P56817); test: In vitro enzymatic BACE FRET assay; format: biochemical; conditions: read-out: BACE1 FRET assay IC50
Beta Secretase enzyme (BACE1), sequence (P56817 46-501): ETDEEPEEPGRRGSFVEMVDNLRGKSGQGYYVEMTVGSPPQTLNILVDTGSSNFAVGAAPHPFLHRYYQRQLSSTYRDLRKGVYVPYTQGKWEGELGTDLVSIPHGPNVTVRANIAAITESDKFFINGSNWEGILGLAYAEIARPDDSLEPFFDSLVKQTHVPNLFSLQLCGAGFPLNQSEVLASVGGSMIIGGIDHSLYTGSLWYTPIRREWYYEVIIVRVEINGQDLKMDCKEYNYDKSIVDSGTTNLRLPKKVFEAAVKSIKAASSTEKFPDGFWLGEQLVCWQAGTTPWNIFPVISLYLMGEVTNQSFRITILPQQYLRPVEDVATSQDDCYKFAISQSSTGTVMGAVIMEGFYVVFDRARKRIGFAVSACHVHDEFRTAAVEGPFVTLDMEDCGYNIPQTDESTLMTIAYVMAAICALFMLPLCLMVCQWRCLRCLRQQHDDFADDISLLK
Method in brief: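 BACE1 cleavage of a 50 nM fluorophore/quencher peptide FRET substrate ran for one hour in 0.05 M acetate pH 4.2, 10% DMSO, 100 uM genapol. Tris buffer raised pH to neutrality to stop the reaction before fluorescence was read (excitation 488 nm, […]).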

[2] = test system: Aβ40 in conditioned medium of cells stably expressing Amyloid Precursor Protein (APP); test: In vitro BACE cell-based assay (HEK cell assay), Aβ40 sandwich ELISA; conditions: Homo sapiens, HEK293
Method in brief: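 APP-stably expressing cells (40K/well, grown 24 h in DMEM/10% FBS) were treated 24 h with compounds in 10-point dose response starting at 100 μM or 10 μM, 0.1% DMSO final. Secreted Aβ40 was measured by sandwich ELISA (pAb40 capture, biotinylated 6E10 detection, europium time-resolved fluorescence); IC50 from percent inhibition.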

[3] = biological target: T1, Cathepsin D (Cat D) (Homo sapiens, UniProt P07339); test: In vitro enzymatic Cathepsin D (Cat D) FRET assay; format: biochemical; conditions: read-out: CatD IC50
T1 construct: Recombinant Cat D was expressed in CHO cells; made in house; host or cells: CHO cells
T1 sequence (P07339 65-412, species assumed): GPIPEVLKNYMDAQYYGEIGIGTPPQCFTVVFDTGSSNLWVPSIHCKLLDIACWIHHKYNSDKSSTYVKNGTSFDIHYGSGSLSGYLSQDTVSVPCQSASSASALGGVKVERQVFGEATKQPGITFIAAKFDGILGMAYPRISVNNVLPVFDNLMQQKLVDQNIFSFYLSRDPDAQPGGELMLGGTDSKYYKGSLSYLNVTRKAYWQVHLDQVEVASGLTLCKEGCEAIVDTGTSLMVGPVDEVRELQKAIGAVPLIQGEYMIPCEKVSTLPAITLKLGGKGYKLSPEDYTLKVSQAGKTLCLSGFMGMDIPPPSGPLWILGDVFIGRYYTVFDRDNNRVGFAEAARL
Method in brief: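 Recombinant Cat D expressed in CHO cells, used at 9 nM and pre-incubated one hour with serially diluted inhibitor in DMSO. Peptide substrate carries a fluorophore and quencher flanking the cleavage site; reaction stopped with Tris buffer raising pH to neutrality, then fluorescence read.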

SMILES	IC50 [1]	IC50 [2]	IC50 [3]	IC50 ([1]; average IC50, enzyme assay)	IC50 ([2]; average IC50, cell assay)
C=C(C)c1cc(Cl)cnc1C(=O)Nc1ccc(F)c([C@]2(CF)CS(=O)(=O)C(C)(C)C(N)=N2)c1 [Example 407, N-(3-((3S)-5-amino-3-(fluoromethyl)-6,6-dimethyl-1,1-dioxido-3,6-dihydro-2H-1,4-thiazin-3-yl)-4-fluorophenyl)-5-chloro-3-(1-methylethenyl)-2-pyridinecarboxamide]	0.00354 µM	0.057 µM	440 µM		
Cc1cc(Cl)cnc1C(=O)Nc1ccc(F)c([C@]2(CF)CS(=O)(=O)C(C)(C)C(N)=N2)c1 [Example 408, N-(3-((3S)-5-amino-3-(fluoromethyl)-6,6-dimethyl-1,1-dioxido-3,6-dihydro-2H-1,4-thiazin-3-yl)-4-fluorophenyl)-5-chloro-3-methyl-2-pyridinecarboxamide]	0.0004 µM	0.0232 µM	136 µM		
CC1(C)C(N)=N[C@](CF)(c2cc(NC(=O)c3ncc(Cl)cc3F)ccc2F)CS1(=O)=O [Example 409, N-(3-((3S)-5-amino-3-(fluoromethyl)-6,6-dimethyl-1,1-dioxido-3,6-dihydro-2H-1,4-thiazin-3-yl)-4-fluorophenyl)-5-chloro-3-fluoro-2-pyridinecarboxamide]	0.0006 µM	0.0037 µM	363 µM		
Cc1cc(OC(F)F)cnc1C(=O)Nc1ccc(F)c([C@@]2(CF)CS(=O)(=O)C3(CCC3)C(N)=N2)c1 [Example 411, N-(3-((7R)-9-amino-7-(fluoromethyl)-5,5-dioxido-5-thia-8-azaspiro[3.5]non-8-en-7-yl)-4-fluorophenyl)-5-(difluoromethoxy)-3-methyl-2-pyridinecarboxamide]	3.51 µM	> 15.6 µM	514 µM		
Cc1cc(OC(F)F)cnc1C(=O)Nc1ccc(F)c([C@]2(CF)CS(=O)(=O)C3(CCC3)C(N)=N2)c1 [Example 412, N-(3-((7S)-9-amino-7-(fluoromethyl)-5,5-dioxido-5-thia-8-azaspiro[3.5]non-8-en-7-yl)-4-fluorophenyl)-5-(difluoromethoxy)-3-methyl-2-pyridinecarboxamide]	0.00063 µM	0.0082 µM	78.9 µM		
CC1(C)C(N)=N[C@](C)(c2cc(Nc3ccc4c(c3)OC(F)(F)O4)cnc2F)CS1(=O)=O [Example 414, (5R)-5-(5-((2,2-difluoro-1,3-benzodioxol-5-yl)amino)-2-fluoro-3-pyridinyl)-2,2,5-trimethyl-5,6-dihydro-2H-1,4-thiazin-3-amine 1,1-dioxide]	3.2 µM	2.53 µM	33.9 µM		
C[C@@]1(c2cc(N)cnc2F)CS(=O)(=O)C2(CCC2)C(N)=N1 [Example 415, (7R)-7-(5-amino-2-fluoro-3-pyridinyl)-7-methyl-5-thia-8-azaspiro[3.5]non-8-en-9-amine 5,5-dioxide]	14.5 µM	> 15.6 µM	104 µM		
C[C@@]1(c2cc(NC(=O)c3ccc(Cl)cn3)ccc2F)CS(=O)(=O)C2(CCC2)C(N)=N1 [Example 416, N-(3-((7R)-9-amino-7-methyl-5,5-dioxido-5-thia-8-azaspiro[3.5]non-8-en-7-yl)-4-fluorophenyl)-5-chloro-2-pyridinecarboxamide]	0.00236 µM	0.0059 µM	59.5 µM		
NC1=N[C@](CF)(c2cc(N)ccc2F)CS(=O)(=O)C12CCC2 [Example 417, (7S)-7-(5-amino-2-fluorophenyl)-7-(fluoromethyl)-5-thia-8-azaspiro[3.5]non-8-en-9-amine 5,5-dioxide]	2.1 µM	3.65 µM	69.7 µM		
NC1=N[C@@](CF)(c2cc(Br)ccc2F)CS(=O)(=O)C12CCC2 [Example 418, (7R)-7-(5-bromo-2-fluorophenyl)-7-(fluoromethyl)-5-thia-8-azaspiro[3.5]non-8-en-9-amine 5,5-dioxide]			> 400 µM	> 40 µM	> 15.6 µM
CC1(C)C(N)=N[C@](C)(c2cc(Nc3nccc4cc(OCC(F)(F)F)cnc34)ccc2F)CS1(=O)=O [Example 419, N-(3-((3R)-5-amino-3,6,6-trimethyl-1,1-dioxido-3,6-dihydro-2H-1,4-thiazin-3-yl)-4-fluorophenyl)-3-(2,2,2-trifluoroethoxy)-1,7-naphthyridin-8-amine]			631 µM	0.00451 µM	0.026 µM
CC1(C)C(N)=N[C@](C)(c2cc(Nc3nccc4cc(OCC#N)cnc34)ccc2F)CS1(=O)=O [Example 420, ((8-((3-((3R)-5-amino-3,6,6-trimethyl-1,1-dioxido-3,6-dihydro-2H-1,4-thiazin-3-yl)-4-fluorophenyl)amino)-1,7-naphthyridin-3-yl)oxy)acetonitrile]			1260 µM	0.00485 µM	0.0054 µM
CC1(C)C(N)=N[C@](C)(c2cc(Nc3nccc4cc(OCCF)cnc34)ccc2F)CS1(=O)=O [Example 421, N-(3-((3R)-5-amino-3,6,6-trimethyl-1,1-dioxido-3,6-dihydro-2H-1,4-thiazin-3-yl)-4-fluorophenyl)-3-(2-fluoroethoxy)-1,7-naphthyridin-8-amine]			1450 µM	0.031 µM	0.0115 µM
CCOc1cnc2c(Nc3ccc(F)c([C@]4(C)CS(=O)(=O)C(C)(C)C(N)=N4)c3)nccc2c1 [Example 422, N-(3-((3R)-5-amino-3,6,6-trimethyl-1,1-dioxido-3,6-dihydro-2H-1,4-thiazin-3-yl)-4-fluorophenyl)-3-ethoxy-1,7-naphthyridin-8-amine]			958 µM	0.0184 µM	0.029 µM
C[C@]1(F)C(N)=N[C@](C)(c2cc(Nc3nccc4nc(C(F)(F)F)cnc34)ccc2F)CS1(=O)=O [Example 423, N-(3-((3R,6R)-5-amino-6-fluoro-3,6-dimethyl-1,1-dioxido-3,6-dihydro-2H-1,4-thiazin-3-yl)-4-fluorophenyl)-2-(trifluoromethyl)pyrido[3,4-b]pyrazin-5-amine]			> 133 µM	0.0013 µM	0.735 µM
COc1ncc(NC(=O)c2ccccn2)cc1[C@]1(C)CS(=O)(=O)C(C)(C)C(N)=N1 [Example 424, N-(5-((3R)-5-amino-3,6,6-trimethyl-1,1-dioxido-3,6-dihydro-2H-1,4-thiazin-3-yl)-6-methoxy-3-pyridinyl)-2-pyridinecarboxamide]			567 µM	0.298 µM	0.131 µM
CC1(C)C(N)=N[C@](CF)(c2cc(Nc3ncc(F)c4cc(OCC5CC5)cnc34)ccc2F)CS1(=O)=O [Example 431, N-(3-((3S)-5-amino-3-(fluoromethyl)-6,6-dimethyl-1,1-dioxido-3,6-dihydro-2H-1,4-thiazin-3-yl)-4-fluorophenyl)-3-(cyclopropylmethoxy)-5-fluoro-1,7-naphthyridin-8-amine]			476 µM	0.0012 µM	0.1 µM
CC1(C)C(N)=N[C@](CF)(c2cc(Nc3ncc(F)c4cc(OCC(F)(F)F)cnc34)ccc2F)CS1(=O)=O [Example 432, N-(3-((3S)-5-amino-3-(fluoromethyl)-6,6-dimethyl-1,1-dioxido-3,6-dihydro-2H-1,4-thiazin-3-yl)-4-fluorophenyl)-5-fluoro-3-(2,2,2-trifluoroethoxy)-1,7-naphthyridin-8-amine]			312 µM	0.00247 µM	0.187 µM
